Results on 1 molecule are retold here after patent publication US10526322B2, “Inhibitors of kidney-type glutaminase, GLS-1” (CORNELL UNIVERSITY, priority 2014, dated 2020).

The test system of this assay is glutamine metabolism in Dbl-MEFs. As to the kind of experiment: Metabolic tracing, mass isotopologue distribution with [U-13C]glutamine or [U-13C]glucose. Type of assay: cell-based, mouse. Here is the method:
Methods for mass isotopologue distribution analyses using [U-^13C]glutamine or [U-^13C]glucose (Cambridge Isotope Laboratories) were adapted from Cheng et al., “Pyruvate Carboxylase Is Required for Glutamine-Independent Growth of Tumor Cells,” Proc. Natl. Acad. Sci. 108:8674-79 (2011), which is hereby incorporated by reference in its entirety. Briefly, induced (16 hours in complete media without Dox) or non-induced cells (complete media with 1 μg/mL Dox) were plated into 100 mm^2 dishes at a density such that the cells were approximately 60% confluent when adhered, at which point the cells were washed with PBS and grown to 80% confluence in DMEM supplemented with 1% Tet-approved FBS and 8 μM 968/27 for drug treated samples, or 0.8% DMSO for control samples, with or without 1 μg/mL Dox (i.e. overnight). When 80% confluent, cells were then washed with PBS and ^13C-labeling media containing the appropriate drug, DMSO, and Dox concentrations. Media was prepared from glucose- and glutamine-free DMEM powder (Sigma) and supplemented with 1% Tet-approved FBS, 2 mM L[U-^13C]glutamine and 15 mM unlabeled glucose or 15 mM D[U-^13C]glucose and 2 mM unlabeled glutamine (FIGS. 2F-G), together with 1 μg/mL Dox for non-induced samples. For samples containing [U-^13C]glutamine, cells were incubated for 1 hour before extracting metabolites, whereas samples containing [U-^13C]glucose were incubated for 8 hours. Metabolites were extracted by first washing cells twice with ice cold normal saline (0.9% w/v NaCl), followed by addition of 0.5 mL of a 1:1 methanol:water mixture (−20° C.). An internal standard (50 nmol of 2-oxobutyrate) was added and samples were subjected to 3 freeze-thaw cycles, after which macromolecules were separated by centrifugation. The supernatant was evaporated completely and remaining metabolites silylated in 100 μL of a trimethylsilyl donor (Tri-Sil, Thermo) for 30 minutes at 42° C. Metabolites were subjected to GC-MS analysis using an Agilent 6970 gas chromatograph networked to an Agilent 5973 mass selective detector. Metabolites were identified and isotope enrichment calculated as described by Cheng et al., “Pyruvate Carboxylase Is Required for Glutamine-Independent Growth of Tumor Cells,” Proc. Natl. Acad. Sci. 108:8674-79 (2011), which is hereby incorporated by reference in its entirety.

[1] abbreviates: 8 μM, non-induced and induced cells.

SMILES strings stand for the structures.

For the molecule `CN(C)c1ccc(C2Nc3ccc4ccccc4c3C3=C2C(=O)CC(C)(C)C3)cc1Br` (stereo not shown) [Compound 968], the “glucose labeling of citrate isotopologues (M+2)” value (8 μM overnight, 8 hour [U-13C]glucose) is listed as “inhibit”. Under setting [1], the glutamate pool sizes result was “modest decrease”; the “pool sizes of fumarate, malate, and citrate” value is on record as “no effect”. In addition, where the note is “Dbl-expressing cells, 8 μM overnight, 1 hour [U-13C]glutamine”, the “glutamine-derived 13C isotopic enrichment within TCA cycle intermediates” value is “significant reductions”.
